Tests used:
Type in all cases: in vivo
[1] = test system: Chilo suppressalis (Striped Rice Stemborer); assay: Example B3: Chilo suppressalis (striped rice stemborer), artificial diet, L2 larvae; conditions: 144 h, application rate of 200 ppm, 6 days after infestation, L2 larvae, read-out: control in at least one of the three categories (mortality, anti-feedant effect, or growth inhibition)
How it was run: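 Diet-incorporation surface assay: aqueous dilutions of 10'000 ppm DMSO stock applied to artificial diet, dried; 6-8 L2 larvae/well; read day 6 post-infestation for mortality, antifeedant effect, growth inhibition vs untreated. Active if any category above untreated.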

[2] = test system: Plutella xylostella (Diamond Back Moth); assay: Example B4: Plutella xylostella (diamond back moth), artificial diet, eggs, 24-well; conditions: 192 h, application rate of 200 ppm, 8 days after infestation, eggs, read-out: control in at least one of the two categories (mortality or growth inhibition)
Description: 24-well microtiter plates with artificial diet were treated with aqueous test solutions prepared from 10′000 ppm DMSO stock solutions by pipetting. After drying, Plutella eggs were pipetted through a plastic stencil onto a gel blotting paper and the plate was closed with it. The samples were assessed for mortality and growth inhibition in comparison to untreated samples 8 days after infestation.

[3] = test system: Myzus persicae (Green Peach Aphid); assay: Example B5: Myzus persicae (green peach aphid) feeding/contact activity, sunflower leaf discs; conditions: foliar, 144 h, application rate of 200 ppm, 6 days after infestation
Description: Sunflower leaf discs were placed onto agar in a 24-well microtiter plate and sprayed with aqueous test solutions prepared from 10′000 ppm DMSO stock solutions. After drying, the leaf discs were infested with an aphid population of mixed ages. The samples were assessed for mortality 6 days after infestation.

[4] = test system: Euschistus heros (Neotropical Brown Stink Bug); assay: Example B2: Euschistus heros (neotropical brown stink bug), soybean leaves sprayed, N2 nymphs; conditions: 120 h, application rate of 200 ppm, 5 days after infestation, N2 nymphs, read-out: control in at least one of the two categories (mortality or growth inhibition)
Description: Soybean leaves on agar in 24-well microtiter plates were sprayed with aqueous test solutions prepared from 10′000 ppm DMSO stock solutions. After drying the leaves were infested with N2 nymphs. The samples were assessed for mortality and growth inhibition in comparison to untreated samples 5 days after infestation.

[5] = test system: Spodoptera littoralis (Egyptian Cotton Leaf Worm); assay: Example B7: Spodoptera littoralis (Egyptian cotton leaf worm), cotton leaf discs sprayed, L1 larvae; conditions: foliar, 72 h, application rate of 200 ppm, 3 days after infestation, L1 larvae, read-out: control in at least one of the three categories (mortality, anti-feedant effect, or growth inhibition)
How it was run: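 Read-out: mortality, feeding deterrence and growth inhibition, assessed 3 days after infestation relative to untreated samples. Sprayed, dried cotton leaf discs on agar each received five first-instar (L1) larvae; sprays were aqueous solutions prepared from 10′000 ppm DMSO stocks.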

[6] = test system: Myzus persicae (Green Peach Aphid); assay: Example B6: Myzus persicae (green peach aphid) intrinsic activity, sucrose solution; conditions: 120 h, test rate of 12 ppm, 5 days after infestation, intrinsic activity, read-out: mortality
How it was run: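 Mortality was read 5 days after infestation. Aphids on pea seedlings fed through a stretched Parafilm membrane on inverted 24-well plates containing sucrose solution mixed with test compound, which was diluted from 10′000 ppm DMSO stock.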

[7] = test system: Diabrotica Balteata (Corn Root Worm); assay: Example B1: Diabrotica balteata (corn root worm), maize sprouts sprayed, L2 larvae; conditions: 96 h, application rate of 200 ppm, 4 days after infestation, L2 larvae, read-out: control in at least one of the two categories (mortality or growth inhibition)
How it was run: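 Larvae at L2 stage, 6 to 10 per well, feed on dried, spray-treated maize sprouts set on agar. Evaluation after 4 days compares mortality and growth inhibition with untreated samples.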

C[C@@H](c1ncnn1-c1ccc(C#N)cn1)N(C)c1ncnc2c(C(F)(F)F)cc(Cl)cc12 [P.21, 6-[5-[(1S)-1-[[6-chloro-8-(trifluoromethyl)quinazolin-4-yl]-methyl-amino]ethyl]-1,2,4-triazol-1-yl]pyridine-3-carbonitrile]
≥ 80%: percent control (mortality, anti-feedant effect or growth inhibition) at 200 ppm [1] | percent control (mortality or growth inhibition) at 200 ppm [2] | mortality at 200 ppm [3] | percent control (mortality or growth inhibition) at 200 ppm [4] | percent control (mortality, anti-feedant effect or growth inhibition) at 200 ppm [5] | mortality at 12 ppm [6] | percent control (mortality or growth inhibition) at 200 ppm [7]

C[C@@H](c1ncnn1-c1ccc(C#N)cn1)N(C)c1ncnc2c(SC(F)(F)F)cc(C(F)(F)F)cc12 [P.215, 6-[5-[(1S)-1-[methyl-[6-(trifluoromethyl)-8-(trifluoromethylsulfanyl)quinazolin-4-yl]amino]ethyl]-1,2,4-triazol-1-yl]pyridine-3-carbonitrile]
≥ 80%: percent control (mortality, anti-feedant effect or growth inhibition) at 200 ppm [1] | percent control (mortality or growth inhibition) at 200 ppm [2] | mortality at 200 ppm [3] | percent control (mortality or growth inhibition) at 200 ppm [4] | percent control (mortality, anti-feedant effect or growth inhibition) at 200 ppm [5] | mortality at 12 ppm [6] | percent control (mortality or growth inhibition) at 200 ppm [7]

C[C@@H](c1ncnn1-c1ncccn1)N(C)c1ncnc2c(C(F)(F)F)cc(Cl)cc12 [P.23, 6-chloro-N-methyl-N-[(1S)-1-(2-pyrimidin-2-yl-1,2,4-triazol-3-yl)ethyl]-8-(trifluoromethyl)quinazolin-4-amine]
≥ 80%: percent control (mortality, anti-feedant effect or growth inhibition) at 200 ppm [1] | percent control (mortality or growth inhibition) at 200 ppm [2] | mortality at 200 ppm [3] | percent control (mortality or growth inhibition) at 200 ppm [4] | percent control (mortality, anti-feedant effect or growth inhibition) at 200 ppm [5] | mortality at 12 ppm [6] | percent control (mortality or growth inhibition) at 200 ppm [7]

C[C@@H](c1ncnn1-c1ncccn1)N(C)c1ncnc2c(C(F)(F)F)cc(C(F)(F)F)cc12 [P.26, N-methyl-N-[(1S)-1-(2-pyrimidin-2-yl-1,2,4-triazol-3-yl)ethyl]-6,8-bis(trifluoromethyl)quina-zolin-4-amine]
≥ 80%: percent control (mortality, anti-feedant effect or growth inhibition) at 200 ppm [1] | percent control (mortality or growth inhibition) at 200 ppm [2] | mortality at 200 ppm [3] | percent control (mortality or growth inhibition) at 200 ppm [4] | percent control (mortality, anti-feedant effect or growth inhibition) at 200 ppm [5] | mortality at 12 ppm [6] | percent control (mortality or growth inhibition) at 200 ppm [7]

C[C@@H](c1ncnn1-c1ncccn1)N(CC1CC1)c1ncnc2c(C(F)(F)F)cc(Cl)cc12 [P.265, 6-chloro-N-(cyclopropylmethyl)-N-[(1S)-1-(2-pyrimidin-2-yl-1,2,4-triazol-3-yl)ethyl]-8-(trifluoromethyl)quinazolin-4-amine]
≥ 80%: percent control (mortality, anti-feedant effect or growth inhibition) at 200 ppm [1] | percent control (mortality or growth inhibition) at 200 ppm [2] | mortality at 200 ppm [3] | percent control (mortality or growth inhibition) at 200 ppm [4] | percent control (mortality, anti-feedant effect or growth inhibition) at 200 ppm [5] | mortality at 12 ppm [6] | percent control (mortality or growth inhibition) at 200 ppm [7]

C[C@@H](c1ncnn1-c1ncccn1)N(C)c1ncnc2c(OC(F)F)cc(Cl)cc12 [P.90, 6-chloro-8-(difluoromethoxy)-N-methyl-N-[(1S)-1-(2-pyrimidin-2-yl-1,2,4-triazol-3-yl)ethyl]quinazolin-4-amine]
≥ 80%: percent control (mortality, anti-feedant effect or growth inhibition) at 200 ppm [1] | percent control (mortality or growth inhibition) at 200 ppm [2] | mortality at 200 ppm [3] | percent control (mortality or growth inhibition) at 200 ppm [4] | mortality at 12 ppm [6] | percent control (mortality or growth inhibition) at 200 ppm [7]

CC(c1ncnn1-c1ccc(F)cn1)N(C)c1ncnc2c(C(F)(F)F)cc(Br)cc12 (centres unmarked) [P.188, 6-bromo-N-[1-[2-(5-fluoro-2-pyridyl)-1,2,4-triazol-3-yl]ethyl]-N-methyl-8-(trifluoromethyl)quinazolin-4-amine]
≥ 80%: percent control (mortality, anti-feedant effect or growth inhibition) at 200 ppm [1] | percent control (mortality or growth inhibition) at 200 ppm [2] | mortality at 200 ppm [3] | percent control (mortality or growth inhibition) at 200 ppm [4] | mortality at 12 ppm [6] | percent control (mortality or growth inhibition) at 200 ppm [7]

C[C@@H](c1ncnn1-c1ccc(C(N)=S)cn1)N(C)c1ncnc2c(C(F)(F)F)cc(Cl)cc12 [P.191, 6-[5-[(1S)-1-[[6-chloro-8-(trifluoromethyl)quinazolin-4-yl]-methyl-amino]ethyl]-1,2,4-triazol-1-yl]pyridine-3-carbothioamide]
≥ 80%: percent control (mortality, anti-feedant effect or growth inhibition) at 200 ppm [1] | percent control (mortality or growth inhibition) at 200 ppm [2] | mortality at 200 ppm [3] | percent control (mortality or growth inhibition) at 200 ppm [4] | mortality at 12 ppm [6] | percent control (mortality or growth inhibition) at 200 ppm [7]

CC(c1ncnn1-c1ccc(OC(F)F)cn1)N(C)c1ncnc2c(C(F)(F)F)cc(Cl)cc12 (centres unmarked) [P.236, 6-chloro-N-[1-[2-[5-(difluoromethoxy)-2-pyridyl]-1,2,4-triazol-3-yl]ethyl]-N-methyl-8-(trifluoromethyl)quinazolin-4-amine]
≥ 80%: percent control (mortality, anti-feedant effect or growth inhibition) at 200 ppm [1] | percent control (mortality or growth inhibition) at 200 ppm [2] | mortality at 200 ppm [3] | percent control (mortality, anti-feedant effect or growth inhibition) at 200 ppm [5] | mortality at 12 ppm [6] | percent control (mortality or growth inhibition) at 200 ppm [7]

C[C@@H](c1ncnn1-c1ccc(C(N)=S)cn1)N(C)c1ncnc2c(C(F)(F)F)cc(C(F)(F)F)cc12 [P.190, 6-[5-[(1S)-1-[[6,8-bis(trifluoromethyl)quinazolin-4-yl]-methyl-amino]ethyl]-1,2,4-triazol-1-yl]pyridine-3-carbothioamide]
≥ 80%: percent control (mortality, anti-feedant effect or growth inhibition) at 200 ppm [1] | percent control (mortality or growth inhibition) at 200 ppm [2] | mortality at 200 ppm [3] | percent control (mortality or growth inhibition) at 200 ppm [4] | mortality at 12 ppm [6] | percent control (mortality or growth inhibition) at 200 ppm [7]

CC(c1ncnn1-c1ncccn1)N(C)c1ncnc2c(C(F)(F)F)cc(Br)cc12 (centres unmarked) [P.127, 6-bromo-N-methyl-N-[1-(2-pyrimidin-2-yl-1,2,4-triazol-3-yl)ethyl]-8-(trifluoromethyl)quinazolin-4-amine]
≥ 80%: percent control (mortality, anti-feedant effect or growth inhibition) at 200 ppm [1] | percent control (mortality or growth inhibition) at 200 ppm [2] | mortality at 200 ppm [3] | percent control (mortality, anti-feedant effect or growth inhibition) at 200 ppm [5] | mortality at 12 ppm [6] | percent control (mortality or growth inhibition) at 200 ppm [7]

C[C@H](Nc1ncnc2c(C(F)(F)F)cc(Cl)cc12)c1ncnn1-c1ncccn1 [P.24, 6-chloro-N-[(1S)-1-(2-pyrimidin-2-yl-1,2,4-triazol-3-yl)ethyl]-8-(trifluoromethyl)quinazolin-4-amine]
≥ 80%: percent control (mortality, anti-feedant effect or growth inhibition) at 200 ppm [1] | percent control (mortality or growth inhibition) at 200 ppm [2] | mortality at 200 ppm [3] | percent control (mortality, anti-feedant effect or growth inhibition) at 200 ppm [5] | mortality at 12 ppm [6] | percent control (mortality or growth inhibition) at 200 ppm [7]

CC(c1ncnn1-c1ccc(F)cn1)N(C)c1ncnc2c(C(F)(F)F)cc(Cl)cc12 (centres unmarked) [P.187, 6-chloro-N-[1-[2-(5-fluoro-2-pyridyl)-1,2,4-triazol-3-yl]ethyl]-N-methyl-8-(trifluoromethyl)quinazolin-4-amine]
≥ 80%: percent control (mortality, anti-feedant effect or growth inhibition) at 200 ppm [1] | percent control (mortality or growth inhibition) at 200 ppm [2] | mortality at 200 ppm [3] | percent control (mortality or growth inhibition) at 200 ppm [4] | mortality at 12 ppm [6] | percent control (mortality or growth inhibition) at 200 ppm [7]

CC(c1ncnn1-c1ncccn1)N(C)c1ncnc2c(Br)cc(Br)cc12 (centres unmarked) [P.258, 6,8-dibromo-N-methyl-N-[1-(2-pyrimidin-2-yl-1,2,4-triazol-3-yl)ethyl]quinazolin-4-amine]
≥ 80%: percent control (mortality, anti-feedant effect or growth inhibition) at 200 ppm [1] | percent control (mortality or growth inhibition) at 200 ppm [2] | mortality at 200 ppm [3] | percent control (mortality, anti-feedant effect or growth inhibition) at 200 ppm [5] | mortality at 12 ppm [6] | percent control (mortality or growth inhibition) at 200 ppm [7]

— patent US20230002359A1, “PESTICIDALLY ACTIVE FUSED BICYCLIC HETEROAROMATIC COMPOUNDS” (priority 2019, published 2023)
